Assay [1] has as its target T1, GPR84-Cys^352Ile Gαi2 fusion protein (Homo sapiens, UniProt Q9NQS5). The experiment in a line: [35S]GTPγS binding, membranes expressing pertussis toxin-resistant GPR84-Cys352Ile Gαi2 fusion; operational model of allosteric modulation. It is filed as biochemical. Here is the method:
The only previous study[3] designed to explore the mode of binding of ligands to GPR84 employed a fusion protein[31],[32] in which the G protein Gαi1 was linked in-frame to the C-terminal tail of GPR84.
Membranes were generated from Flp-In T-REx HEK293 cells treated with 100 ng/mL doxycycline to induce expression of the receptor construct of interest. Cells were washed with ice-cold phosphate-buffered saline, removed from dishes by scraping and centrifuged at 3000 rpm for 5 min at 4 °C. Pellets were resuspended in TE buffer (10 mM Tris-HCl, 0.1 mM EDTA; pH 7.5) containing a protease inhibitor mixture (Roche Applied Science, West Sussex, UK) and homogenized with a 5 ml hand-held homogenizer. This material was centrifuged at 1500 rpm for 5 min at 4 °C and the supernatant was further centrifuged at 50000 rpm for 45 min at 4 °C. The resulting pellet was resuspended in TE buffer and protein content was assessed using a BCA protein assay kit (Pierce, Fisher Scientific, Loughborough, UK).
The reaction was then initiated with addition of [^35S]GTPγS (50 nCi per tube), and the reaction was terminated after 45 minutes incubation at 30 °C by rapid filtration through GF/C glass filters using a 24-well Brandel cell harvester (Alpha Biotech, Glasgow, UK). […] Dried filters were added to 3 mL of Ultima Gold^TM XR (PerkinElmer Life Sciences, Beaconsfield, UK) and [^35S]GTPγS binding was determined by liquid scintillation spectrometry.
To quantify the extent of allosteric interaction between pairs of ligands, data were analysed using an operational model of allosteric modulation described previously. The general version of this model can be depicted by the following equation: E=Em(τA[A](KB+αβ[B])+τB[B]KA)^n/([A]KB+KAKB+[B]KA+α[A][B])^n+(τA[A](KB+αβ[B])+τB[B]KA)^n where, E is the pharmacological effect, [A] and [B] are the orthosteric and allosteric compound concentrations at equilibrium, respectively; KA and KB are the equilibrium dissociation constants of the orthosteric and allosteric ligands respectively, denoting the binding affinities of the two ligands to the receptor; α is the binding cooperativity factor denoting the magnitude and direction of the allosteric effect on binding affinity of the orthosteric agonist to the receptor, β is the activation cooperativity factor representing the measure of the allosteric effect on orthosteric efficacy. τA and τB represent the intrinsic activity of the orthosteric and allosteric ligand, respectively. Em is the maximal possible system response and n denotes the slope factor of the transducer function. In case of global fitting of the allosterism data through this equation, Em and n values were always constrained and other parameters (KA, KB,τA, τB, α, β) were estimated.
Target sequence in this assay (Q9NQS5 whole entry, the tested form may be a part): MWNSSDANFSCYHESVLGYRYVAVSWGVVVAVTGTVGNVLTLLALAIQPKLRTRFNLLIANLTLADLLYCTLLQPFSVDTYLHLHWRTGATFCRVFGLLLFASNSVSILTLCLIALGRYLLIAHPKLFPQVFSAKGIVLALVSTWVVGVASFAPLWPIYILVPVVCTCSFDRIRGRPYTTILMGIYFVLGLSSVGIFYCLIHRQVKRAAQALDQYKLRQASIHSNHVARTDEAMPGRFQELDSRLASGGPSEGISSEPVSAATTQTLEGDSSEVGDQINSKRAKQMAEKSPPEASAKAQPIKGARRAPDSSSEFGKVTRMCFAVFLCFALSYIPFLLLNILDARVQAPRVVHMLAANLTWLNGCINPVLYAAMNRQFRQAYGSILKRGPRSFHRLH
Target sequence in this assay (P04899 2-355 C352I, further chain): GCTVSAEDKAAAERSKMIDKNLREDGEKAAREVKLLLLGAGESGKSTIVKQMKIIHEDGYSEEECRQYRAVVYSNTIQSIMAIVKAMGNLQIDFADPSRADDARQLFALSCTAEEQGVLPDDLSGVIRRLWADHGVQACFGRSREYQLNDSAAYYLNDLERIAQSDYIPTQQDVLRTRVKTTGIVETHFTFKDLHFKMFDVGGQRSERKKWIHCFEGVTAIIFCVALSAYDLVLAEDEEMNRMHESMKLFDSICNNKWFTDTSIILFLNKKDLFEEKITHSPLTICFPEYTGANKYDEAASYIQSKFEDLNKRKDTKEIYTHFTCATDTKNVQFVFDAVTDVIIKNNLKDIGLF

For assay [2], the target named is T2, Arg^172Lys GPR84-Cys^352Ile Gαi2 fusion protein (Homo sapiens, UniProt Q9NQS5, R172K).
T2 construct: Cys352Ile Gαi2 (fusion partner, same polypeptide); expressed in transfected cells; host or cells: membranes of Flp-In T-REx 293 cells, doxycycline-induced
Put plainly: [35S]GTPγS binding, Arg172Lys mutant fusion protein. Format: biochemical. On the technique in general: GTPγS resists hydrolysis and so accumulates on activated G proteins.

The target of assay [3] is T3, FLAG-Arg^174Ala hGPR84-eYFP (Homo sapiens, UniProt Q9NQS5, R174A).
T3 construct: expressed in transfected cells; host or cells: membranes of Flp-In T-REx 293 cells, doxycycline-induced
The experiment in a line: [35S]GTPγS binding, Arg174Ala mutant receptor. Format: biochemical.

Assay [4] addresses T1, GPR84-Cys^352Ile Gαi2 fusion protein. The experiment in a line: [3H]G9543 radioligand binding (saturation and displacement), GPR84-Cys352Ile Gαi2 fusion protein. Also on record: Cys352Ile Gαi2 (fusion partner, same polypeptide); expressed in transfected cells; host or cells: membranes of Flp-In T-REx 293 cells, doxycycline-induced. To be noted: displacement assay. Here is the method: [^3H]G9543 is an analog of compounds 104, 107 and 161 with the same characteristic 2-(substituted-alkoxy)-9-substituted-6,7-dihydro-pyrimido[6,1-a]isoquinolin-4-one chemotype. […] Binding was initiated by the addition of membranes (5 µg of protein per tube). All assays were performed at 25 °C for 1 h before termination by the addition of ice-cold phosphate-buffered saline and vacuum filtration through GF/C glass filters using a 24-well Brandel cell harvester (Alpha Biotech, Glasgow, UK). Each reaction tube was washed three times with ice-cold PBS. The filters were allowed to dry for 2–3 h and then placed in 3 ml of Ultima Gold^TM XR. Radioactivity was quantified by liquid scintillation spectrometry. Specific binding was defined as the difference between binding detected in the presence and absence of 1 µM compound 104.
All data are presented as means ± SEM of at least three independent experiments. Data analysis and curve fitting was carried out using the GraphPad Prism software package version 5.0b (GraphPad, San Diego). For functional assays the concentration-response data were plotted on a log axis, with the untreated vehicle control plotted at 1 log unit lower than the lowest ligand concentration, and fitted to a three parameter sigmoidal curve with the Hill slope constrained to equal 1. In case of inhibition experiments with antagonists an equivalent analysis was followed to fit an inverse sigmoidal curve. To perform the statistical analysis of curve parameters, data from multiple experiments were fitted independently and resulting curve fit values were analysed with indicated tests. For radioligand binding data, saturation binding curves were generated by fitting the specific binding, which was obtained by subtracting non-specific from total binding, to a one site specific binding model that allows calculation of Kd values for the radioligand at wild type and mutant receptors. To determine affinity of unlabelled ligands, data obtained in displacement assays were fit to an inverse three parameter sigmoidal curve constrained by radioligand affinity and concentration to allow for Ki calculation.
Target sequence in this assay (Q9NQS5 2-396): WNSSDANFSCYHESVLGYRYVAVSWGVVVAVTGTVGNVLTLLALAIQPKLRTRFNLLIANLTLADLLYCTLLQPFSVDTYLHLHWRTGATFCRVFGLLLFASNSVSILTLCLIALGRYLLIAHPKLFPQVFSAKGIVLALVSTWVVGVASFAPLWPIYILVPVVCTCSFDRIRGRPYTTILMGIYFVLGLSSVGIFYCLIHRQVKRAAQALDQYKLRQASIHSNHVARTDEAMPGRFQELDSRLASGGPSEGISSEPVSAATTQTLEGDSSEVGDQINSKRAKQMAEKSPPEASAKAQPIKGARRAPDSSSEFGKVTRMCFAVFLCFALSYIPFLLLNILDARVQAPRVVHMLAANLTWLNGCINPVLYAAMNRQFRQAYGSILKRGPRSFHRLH

[5] abbreviates: agonist DIM, modulator compound-1.

T3 sequence (Q9NQS5 whole entry R174A): as the sequence (Q9NQS5 whole entry, the tested form may be a part) above, with R174A counted along it
T2 sequence (Q9NQS5 2-396 R172K): as the sequence (Q9NQS5 2-396) above, with R171K counted along it

`CCCCCCCCCC(=O)O` [C10, decanoic acid]: the “co-addition with compound-1 or embelin, effect on potency” value in assay [1] is “did not result in modulation of the potency”. In assay [1] (agonist C-10, modulator DIM), the logα is reported as 1.4 ± 0.1 and the logβ came out at 0.4 ± 0.07. Also, in assay [2], the “agonist response at Arg172Lys mutant” value is recorded as “eliminated response”. Moreover, the “effect of Arg174Ala mutation on agonist function or potency” value in assay [3] is given as “did not affect function or potency”. Also, the “ability to compete with [3H]G9543 binding” value in assay [4] is on record as “neither C10 nor DIM was able to compete effectively”.
For `c1ccc2c(Cc3c[nH]c4ccccc34)c[nH]c2c1` [DIM, 3,-3′-diindolylmethane], the “increase in potency of DIM to activate GPR84 at high levels of C10 or other MCFAs versus absence of C10” value in assay [1] was approximately 20 fold. The logα in assay [1] (agonist DIM, modulator C-10) is on record as 1.3 ± 0.1; in assay [1] (setting [5]) it was 1.8 ± 0.08; in assay [1] (agonist DIM, modulator embelin) it was 1.12 ± 0.04. The logβ is listed as 1.2 ± 0.05 in assay [1] (agonist DIM, modulator C-10); 1.14 ± 0.03 in assay [1] (setting [5]); 1.0 ± 0.03 in assay [1] (agonist DIM, modulator embelin). In addition, the “allosteric effect on potency of C10” value in assay [1] (co-addition of increasing concentrations of DIM, pertussis toxin-treated cells) was “positive allosteric modulator”. Moreover, the “effect on measured potency of compound-1 and embelin” value in assay [1] (increasing concentrations of DIM) is reported as “enhancing the measured potency”. The “response after pertussis toxin treatment” value in assay [1] (pertussis toxin-resistant fusion, pertussis toxin 24 h) is listed as “unaffected”. Further, in assay [2], the “agonist response at Arg172Lys mutant” value is recorded as “without affecting response”. The “effect of Arg174Ala mutation on agonist function or potency” value in assay [3] is on record as “did not affect function or potency”. Moreover, in assay [4], the “ability to compete with [3H]G9543 binding” value is “neither C10 nor DIM was able to compete effectively”.

For the origin of these results see article PMC5738391, “Three classes of ligands each bind to distinct sites on the orphan G protein-coupled receptor GPR84” (Scientific Reports, 2017).
